Measured values taken from patent publication US9296723B2, “NAMPT inhibitors” (AbbVie Inc., priority 2012, dated 2016).
pIC50: −log10 of the molar value.

What was measured:
[1] = test system: PC3 cells; assay: NAMPT Cell Proliferation Assay (Cell Titer Glo); assay type: cell-based; conditions: Homo sapiens, PC-3, 120 h, incubated 5 days, cell viability
Method in brief: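 Viability measured by Cell Titer Glo luminescence after 5-day exposure of attached PC3 cells to compound, dosed as 10-fold serial dilutions ([…]) in RPMI/10% FBS at 37 °C and 5% CO2. Percent inhibition fitted to sigmoidal dose-response curves for IC50.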

[2] = molecular target: T1, NAMPT (Homo sapiens, UniProt P43490); assay: Time-Resolved Fluorescence Resonance Energy Transfer (TR-FRET) Binding Assay of NAMPT; conditions: 6.8 nM NAMPT, 200 nM probe, equilibrated 3 hours, no substrates
T1 sequence (P43490 whole entry): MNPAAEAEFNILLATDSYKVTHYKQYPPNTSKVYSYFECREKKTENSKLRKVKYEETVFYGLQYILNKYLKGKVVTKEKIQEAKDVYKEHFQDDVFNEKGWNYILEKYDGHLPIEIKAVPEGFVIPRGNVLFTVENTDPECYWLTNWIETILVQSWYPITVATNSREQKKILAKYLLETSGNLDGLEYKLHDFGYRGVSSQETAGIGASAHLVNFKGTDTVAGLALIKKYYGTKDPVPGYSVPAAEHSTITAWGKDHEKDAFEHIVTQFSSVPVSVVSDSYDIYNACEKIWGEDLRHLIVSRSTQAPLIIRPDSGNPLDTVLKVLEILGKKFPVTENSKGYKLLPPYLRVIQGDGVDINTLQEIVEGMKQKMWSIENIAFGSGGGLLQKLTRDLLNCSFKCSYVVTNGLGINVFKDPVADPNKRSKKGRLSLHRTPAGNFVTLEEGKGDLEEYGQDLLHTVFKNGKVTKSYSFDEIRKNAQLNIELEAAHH
Method in brief: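 IC50s come from four-parameter logistic fits of control-normalized Em520/Em495 TR-FRET ratios (Ex 337 nm) against compound concentration. Before reading, enzyme, probe, antibody and compound equilibrated for 3 h at room temperature.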

[3] = molecular target: T1, NAMPT; assay: TR-FRET Binding Assay of NAMPT with PRPP; conditions: 2 nM NAMPT, 2 nM probe, 200 µM PRPP and 2.5 mM ATP, equilibrated 16 hours
Description: Time-Resolved Fluorescence Resonance Energy Transfer (TR-FRET) Binding Assay of NAMPT with PRPP
Compound handling and data processing were identical to the assay in the absence of substrates (above). Final concentrations were 1× assay buffer, 2% DMSO, 2 nM NAMPT, 2 nM probe, 1 nM Tb-anti-His antibody (Invitrogen #PV5895), 200 µM PRPP and 2.5 mM ATP. Reactions were equilibrated for 16 hours prior to measurement to allow for potential enzymatic modification of test compounds.

SMILES	pIC50 [1]	pIC50 [2]	pIC50 [3]
CC[C@H](C)C(=O)N1CC(Oc2ccc(NC(=O)N3CC(c4cccnc4)C3)cc2)C1 [Example 1, N-[4-({1-[(2S)-2-methylbutanoyl]azetidin-3-yl}oxy)phenyl]-3-(pyridin-3-yl)azetidine-1-carboxamide]	7.93	7.60	9.06
O=C(CC1CCOCC1)N1CCC(Oc2ccc(NC(=O)N3CC(c4cccnc4)C3)cc2)CC1 [Example 2, 3-(pyridin-3-yl)-N-(4-{[1-(tetrahydro-2H-pyran-4-ylacetyl)piperidin-4-yl]oxy}phenyl)azetidine-1-carboxamide]	7.46	6.90	9.43
CC1CC1C(=O)N1CC(c2ccc(NC(=O)N3CC(c4cccnc4)C3)cc2)C1 (stereo not shown) [Example 199, N-(4-{1-[(2-methylcyclopropyl)carbonyl]azetidin-3-yl}phenyl)-3-(pyridin-3-yl)azetidine-1-carboxamide]		6.89	9.45
CC(C)CCC(=O)N1CC(c2ccc(NC(=O)N3CC(c4cccnc4)C3)cc2)C1 [Example 201, N-{4-[1-(4-methylpentanoyl)azetidin-3-yl]phenyl}-3-(pyridin-3-yl)azetidine-1-carboxamide]		7.36	9.50
CCOCCC(=O)N1CC(c2ccc(NC(=O)N3CC(c4cccnc4)C3)cc2)C1 [Example 203, N-{4-[1-(3-ethoxypropanoyl)azetidin-3-yl]phenyl}-3-(pyridin-3-yl)azetidine-1-carboxamide]		6.60	9.37
CC(C)(C)CC(=O)N1CC(c2ccc(NC(=O)N3CC(c4cccnc4)C3)cc2)C1 [Example 205, N-{4-[1-(3,3-dimethylbutanoyl)azetidin-3-yl]phenyl}-3-(pyridin-3-yl)azetidine-1-carboxamide]		7.37	9.62
CCOCC(=O)N1CC(c2ccc(NC(=O)N3CC(c4cccnc4)C3)cc2)C1 [Example 207, N-{4-[1-(ethoxyacetyl)azetidin-3-yl]phenyl}-3-(pyridin-3-yl)azetidine-1-carboxamide]		6.35	9.43
CC(=O)N[C@@H](CC(C)C)C(=O)N1CC(c2ccc(NC(=O)N3CC(c4cccnc4)C3)cc2)C1 [Example 209, N-{4-[1-(N-acetyl-L-leucyl)azetidin-3-yl]phenyl}-3-(pyridin-3-yl)azetidine-1-carboxamide]		7.62	9.16
O=C(Nc1ccc(C2CN(C(=O)C3CCCCC3)C2)cc1)N1CC(c2cccnc2)C1 [Example 211, N-{4-[1-(cyclohexylcarbonyl)azetidin-3-yl]phenyl}-3-(pyridin-3-yl)azetidine-1-carboxamide]		7.25	9.47
O=C(CCC(F)(F)F)N1CC(c2ccc(NC(=O)N3CC(c4cccnc4)C3)cc2)C1 [Example 213, 3-(pyridin-3-yl)-N-{4-[1-(4,4,4-trifluorobutanoyl)azetidin-3-yl]phenyl}azetidine-1-carboxamide]		7.06	9.45
CC1(C(=O)N2CC(c3ccc(NC(=O)N4CC(c5cccnc5)C4)cc3)C2)CCCCC1 [Example 215, N-(4-{1-[(1-methylcyclohexyl)carbonyl]azetidin-3-yl}phenyl)-3-(pyridin-3-yl)azetidine-1-carboxamide]		7.56	9.53
CC(=O)N1CC(c2ccc(NC(=O)N3CC(c4cccnc4)C3)cc2)C1 [Example 217, N-[4-(1-acetylazetidin-3-yl)phenyl]-3-(pyridin-3-yl)azetidine-1-carboxamide]		6.56	9.49
O=C(Nc1ccc(C2CN(C(=O)c3ccsc3)C2)cc1)N1CC(c2cccnc2)C1 [Example 219, 3-(pyridin-3-yl)-N-{4-[1-(thiophen-3-ylcarbonyl)azetidin-3-yl]phenyl}azetidine-1-carboxamide]		7.71	9.54
O=C(CN1CCOCC1)N1CC(c2ccc(NC(=O)N3CC(c4cccnc4)C3)cc2)C1 [Example 221, N-{4-[1-(morpholin-4-ylacetyl)azetidin-3-yl]phenyl}-3-(pyridin-3-yl)azetidine-1-carboxamide]		6.82	9.50

The next lines start with the values.

pIC50 [1]	pIC50 [2]	pIC50 [3]	SMILES
	7.67	9.41	Cc1ccc(C(=O)N2CC(c3ccc(NC(=O)N4CC(c5cccnc5)C4)cc3)C2)s1 [Example 223, N-(4-{1-[(5-methylthiophen-2-yl)carbonyl]azetidin-3-yl}phenyl)-3-(pyridin-3-yl)azetidine-1-carboxamide]
	7.85	9.57	Cn1cccc1C(=O)N1CC(c2ccc(NC(=O)N3CC(c4cccnc4)C3)cc2)C1 [Example 225, N-(4-{1-[(1-methyl-1H-pyrrol-2-yl)carbonyl]azetidin-3-yl}phenyl)-3-(pyridin-3-yl)azetidine-1-carboxamide]
	7.16	9.53	CC1(C(=O)N2CC(c3ccc(NC(=O)N4CC(c5cccnc5)C4)cc3)C2)CC1 [Example 227, N-(4-{1-[(1-methylcyclopropyl)carbonyl]azetidin-3-yl}phenyl)-3-(pyridin-3-yl)azetidine-1-carboxamide]
	7.71	9.51	O=C(Nc1ccc(C2CN(C(=O)c3nccs3)C2)cc1)N1CC(c2cccnc2)C1 [Example 228, 3-(pyridin-3-yl)-N-{4-[1-(1,3-thiazol-2-ylcarbonyl)azetidin-3-yl]phenyl}azetidine-1-carboxamide]
	7.39	9.50	O=C(CC1CCCC1)N1CC(c2ccc(NC(=O)N3CC(c4cccnc4)C3)cc2)C1 [Example 229, N-{4-[1-(cyclopentylacetyl)azetidin-3-yl]phenyl}-3-(pyridin-3-yl)azetidine-1-carboxamide]
	7.41	9.52	CC(C)C(C)C(=O)N1CC(c2ccc(NC(=O)N3CC(c4cccnc4)C3)cc2)C1 (stereo not shown) [Example 230, N-{4-[1-(2,3-dimethylbutanoyl)azetidin-3-yl]phenyl}-3-(pyridin-3-yl)azetidine-1-carboxamide]
	6.45	9.74	O=C(Nc1ccc(C2CCN(CC3CCCCC3)CC2)cc1)N1CC(c2cccnc2)C1 [Example 232, N-{4-[1-(cyclohexylmethyl)piperidin-4-yl]phenyl}-3-(pyridin-3-yl)azetidine-1-carboxamide]
	6.12	9.28	CCCC(C)CN1CCC(c2ccc(NC(=O)N3CC(c4cccnc4)C3)cc2)CC1 (stereo not shown) [Example 234, N-{4-[1-(2-methylpentyl)piperidin-4-yl]phenyl}-3-(pyridin-3-yl)azetidine-1-carboxamide]
	6.18	9.68	CC(C)CCN1CCC(c2ccc(NC(=O)N3CC(c4cccnc4)C3)cc2)CC1 [Example 236, N-{4-[1-(3-methylbutyl)piperidin-4-yl]phenyl}-3-(pyridin-3-yl)azetidine-1-carboxamide]
	6.22	9.33	CCCCN1CCC(c2ccc(NC(=O)N3CC(c4cccnc4)C3)cc2)CC1 [Example 240, N-[4-(1-butylpiperidin-4-yl)phenyl]-3-(pyridin-3-yl)azetidine-1-carboxamide]
	6.43	9.65	O=C(Nc1ccc(C2CCN(CCC3CC3)CC2)cc1)N1CC(c2cccnc2)C1 [Example 242, N-{4-[1-(2-cyclopropylethyl)piperidin-4-yl]phenyl}-3-(pyridin-3-yl)azetidine-1-carboxamide]
	5.93	9.29	CCC(C)(C)CN1CCC(c2ccc(NC(=O)N3CC(c4cccnc4)C3)cc2)CC1 [Example 244, N-{4-[1-(2,2-dimethylbutyl)piperidin-4-yl]phenyl}-3-(pyridin-3-yl)azetidine-1-carboxamide]
	6.61	9.76	CC(C)(C)CN1CC(c2ccc(NC(=O)N3CC(c4cccnc4)C3)cc2)C1 [Example 254, N-{4-[1-(2,2-dimethylpropyl)azetidin-3-yl]phenyl}-3-(pyridin-3-yl)azetidine-1-carboxamide]
	6.22	9.65	CCC(C)(C)CN1CC(c2ccc(NC(=O)N3CC(c4cccnc4)C3)cc2)C1 [Example 257, N-{4-[1-(2,2-dimethylbutyl)azetidin-3-yl]phenyl}-3-(pyridin-3-yl)azetidine-1-carboxamide]
7.76	7.87		CC1(C(=O)N2CC[C@@H](Oc3ccc(NC(=O)N4CC(c5cccnc5)C4)cc3)C2)CCCCC1 [Example 316, N-[4-({(3R)-1-[(1-methylcyclohexyl)carbonyl]pyrrolidin-3-yl}oxy)phenyl]-3-(pyridin-3-yl)azetidine-1-carboxamide]
7.90	7.46		CC(C)(C)C(=O)N1CC[C@@H](Oc2ccc(NC(=O)N3CC(c4cccnc4)C3)cc2)C1 [Example 322, N-(4-{[(3R)-1-(2,2-dimethylpropanoyl)pyrrolidin-3-yl]oxy}phenyl)-3-(pyridin-3-yl)azetidine-1-carboxamide]
6.72	6.35		O=C(CCN1CCCCC1)N1CC[C@@H](Oc2ccc(NC(=O)N3CC(c4cccnc4)C3)cc2)C1 [Example 327, N-[4-({(3R)-1-[3-(piperidin-1-yl)propanoyl]pyrrolidin-3-yl}oxy)phenyl]-3-(pyridin-3-yl)azetidine-1-carboxamide]
